Reference: PubChem BioAssay (NCI)
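Five concentrations, 48 hours, 96-well plates. GI50: concentration for 50% inhibition of growth. Definition used: TGI = concentration required for complete inhibition of growth.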

Assays:
Experiment in all cases: DTP human tumour cell line panel, 48 h
SF-539 CNS = system: SF-539 CNS
OVCAR-3 ovarian = system: OVCAR-3 ovarian
786-0 renal = system: 786-0 renal
SK-MEL-5 melanoma = system: SK-MEL-5 melanoma
SK-OV-3 ovarian = system: SK-OV-3 ovarian
MCF7 breast = system: MCF7 breast
SF-268 CNS = system: SF-268 CNS
SK-MEL-2 melanoma = system: SK-MEL-2 melanoma
UACC-257 melanoma = system: UACC-257 melanoma
UACC-62 melanoma = system: UACC-62 melanoma
MALME-3M melanoma = system: MALME-3M melanoma
HT29 colon = system: HT29 colon
HL-60(TB) leukemia = system: HL-60(TB) leukemia
SN12C renal = system: SN12C renal
SNB-19 CNS = system: SNB-19 CNS
MOLT-4 leukemia = system: MOLT-4 leukemia
U251 CNS = system: U251 CNS
M14 melanoma = system: M14 melanoma
PC-3 prostate = system: PC-3 prostate
NCI/ADR-RES ovarian = system: NCI/ADR-RES ovarian
TK-10 renal = system: TK-10 renal
LOX IMVI melanoma = system: LOX IMVI melanoma
NCI-H460 lung = system: NCI-H460 lung
SW-620 colon = system: SW-620 colon
NCI-H522 lung = system: NCI-H522 lung
HOP-92 NSCLC = system: HOP-92 NSCLC
HCC-2998 colon = system: HCC-2998 colon
COLO 205 colon = system: COLO 205 colon
BT-549 breast = system: BT-549 breast
OVCAR-4 ovarian = system: OVCAR-4 ovarian
RPMI-8226 leukemia = system: RPMI-8226 leukemia
A549 NSCLC = system: A549 NSCLC
A498 renal = system: A498 renal
IGROV1 ovarian = system: IGROV1 ovarian
MDA-MB-231 breast = system: MDA-MB-231 breast
SK-MEL-28 melanoma = system: SK-MEL-28 melanoma
OVCAR-5 ovarian = system: OVCAR-5 ovarian
UO-31 renal = system: UO-31 renal
EKVX NSCLC = system: EKVX NSCLC
ACHN renal = system: ACHN renal
MDA-MB-435 = system: MDA-MB-435
HOP-62 NSCLC = system: HOP-62 NSCLC
KM12 colon = system: KM12 colon
SF-295 CNS = system: SF-295 CNS
SR leukemia = system: SR leukemia
HCT-15 colon = system: HCT-15 colon
DU-145 prostate = system: DU-145 prostate
RXF 393 renal = system: RXF 393 renal
K-562 leukemia = system: K-562 leukemia
SNB-75 CNS = system: SNB-75 CNS
CCRF-CEM leukemia = system: CCRF-CEM leukemia
T-47D breast = system: T-47D breast
CAKI-1 renal = system: CAKI-1 renal
OVCAR-8 ovarian = system: OVCAR-8 ovarian
HCT-116 colon = system: HCT-116 colon
HS 578T breast = system: HS 578T breast
NCI-H226 lung = system: NCI-H226 lung
NCI-H23 lung = system: NCI-H23 lung

SMILES: C=C(C)[C@@H]1/C=C(/C(C)C)CC[C@@]2(C)OC2CC[C@H](C)CC1=O (stereo not given in full)
- GI50 (SF-539 CNS): 21.9 µM
- TGI (SF-539 CNS): 42.7 µM
- GI50 (OVCAR-3 ovarian): 24.8 µM
- TGI (OVCAR-3 ovarian): 66.1 µM
- GI50 (786-0 renal): > 42.8 µM
- TGI (786-0 renal): > 59.6 µM
- GI50 (SK-MEL-5 melanoma): 19.4 µM
- TGI (SK-MEL-5 melanoma): 37.9 µM
- GI50 (SK-OV-3 ovarian): > 100 µM
- TGI (SK-OV-3 ovarian): > 100 µM
- GI50 (MCF7 breast): 27.7 µM
- TGI (MCF7 breast): > 63.8 µM
- GI50 (SF-268 CNS): 37.7 µM
- TGI (SF-268 CNS): > 100 µM
- GI50 (SK-MEL-2 melanoma): 52.1 µM
- TGI (SK-MEL-2 melanoma): > 100 µM
- GI50 (UACC-257 melanoma): 47.6 µM
- TGI (UACC-257 melanoma): > 100 µM
- GI50 (UACC-62 melanoma): > 100 µM
- TGI (UACC-62 melanoma): > 100 µM
- GI50 (MALME-3M melanoma): 35.3 µM
- TGI (MALME-3M melanoma): > 100 µM
- GI50 (HT29 colon): 31.6 µM
- TGI (HT29 colon): 98.8 µM
- GI50 (HL-60(TB) leukemia): 25 µM
- TGI (HL-60(TB) leukemia): 76.2 µM
- GI50 (SN12C renal): 21 µM
- TGI (SN12C renal): 46 µM
- GI50 (SNB-19 CNS): 60 µM
- TGI (SNB-19 CNS): > 100 µM
- GI50 (MOLT-4 leukemia): 16.3 µM
- TGI (MOLT-4 leukemia): 40.9 µM
- GI50 (U251 CNS): 27.6 µM
- TGI (U251 CNS): > 62.2 µM
- GI50 (M14 melanoma): 30.8 µM
- TGI (M14 melanoma): > 62.8 µM
- GI50 (PC-3 prostate): 22.2 µM
- TGI (PC-3 prostate): 54.3 µM
- GI50 (NCI/ADR-RES ovarian): 25.4 µM
- TGI (NCI/ADR-RES ovarian): 59.8 µM
- GI50 (TK-10 renal): 27.6 µM
- TGI (TK-10 renal): > 79.4 µM
- GI50 (LOX IMVI melanoma): 22.4 µM
- TGI (LOX IMVI melanoma): > 57.7 µM
- GI50 (NCI-H460 lung): 18.7 µM
- TGI (NCI-H460 lung): 37.7 µM
- GI50 (SW-620 colon): 25.4 µM
- TGI (SW-620 colon): 65.7 µM
- GI50 (NCI-H522 lung): 31.2 µM
- TGI (NCI-H522 lung): > 93.5 µM
- GI50 (HOP-92 NSCLC): 26.3 µM
- TGI (HOP-92 NSCLC): > 76.7 µM
- GI50 (HCC-2998 colon): > 44.4 µM
- TGI (HCC-2998 colon): > 65.9 µM
- GI50 (COLO 205 colon): 24.9 µM
- TGI (COLO 205 colon): > 61 µM
- GI50 (BT-549 breast): 38.8 µM
- TGI (BT-549 breast): > 100 µM
- GI50 (OVCAR-4 ovarian): 73.8 µM
- TGI (OVCAR-4 ovarian): > 100 µM
- GI50 (RPMI-8226 leukemia): 20.1 µM
- TGI (RPMI-8226 leukemia): 54.1 µM
- GI50 (A549 NSCLC): 28.8 µM
- TGI (A549 NSCLC): > 100 µM
- GI50 (A498 renal): 31.6 µM
- TGI (A498 renal): > 93.2 µM
- GI50 (IGROV1 ovarian): 24.7 µM
- TGI (IGROV1 ovarian): > 63.3 µM
- GI50 (MDA-MB-231 breast): 19.3 µM
- TGI (MDA-MB-231 breast): 49.5 µM
- GI50 (SK-MEL-28 melanoma): 59.3 µM
- TGI (SK-MEL-28 melanoma): > 100 µM
- GI50 (OVCAR-5 ovarian): > 43.5 µM
- TGI (OVCAR-5 ovarian): > 63.5 µM
- GI50 (UO-31 renal): 23.2 µM
- TGI (UO-31 renal): > 55.7 µM
- GI50 (EKVX NSCLC): 52.1 µM
- TGI (EKVX NSCLC): > 100 µM
- GI50 (ACHN renal): 27.5 µM
- TGI (ACHN renal): > 55 µM
- GI50 (MDA-MB-435): 26.6 µM
- TGI (MDA-MB-435): 71.6 µM
- GI50 (HOP-62 NSCLC): 30.3 µM
- TGI (HOP-62 NSCLC): > 57.9 µM
- GI50 (KM12 colon): 18.6 µM
- TGI (KM12 colon): 39.7 µM
- GI50 (SF-295 CNS): 27.4 µM
- TGI (SF-295 CNS): > 71.6 µM
- GI50 (SR leukemia): 2.18 µM
- GI50 (HCT-15 colon): 38.6 µM
- TGI (HCT-15 colon): > 68.6 µM
- GI50 (DU-145 prostate): 19.4 µM
- TGI (DU-145 prostate): 36 µM
- GI50 (RXF 393 renal): 3.37 µM
- TGI (RXF 393 renal): > 49.1 µM
- GI50 (K-562 leukemia): 19.7 µM
- TGI (K-562 leukemia): 58.6 µM
- GI50 (SNB-75 CNS): > 100 µM
- TGI (SNB-75 CNS): > 100 µM
- GI50 (CCRF-CEM leukemia): 20.3 µM
- TGI (CCRF-CEM leukemia): 52.3 µM
- GI50 (T-47D breast): 27.4 µM
- TGI (T-47D breast): > 80.3 µM
- GI50 (CAKI-1 renal): 24.1 µM
- TGI (CAKI-1 renal): 53.8 µM
- GI50 (OVCAR-8 ovarian): 33.9 µM
- TGI (OVCAR-8 ovarian): > 70.5 µM
- GI50 (HCT-116 colon): 17.3 µM
- TGI (HCT-116 colon): 31.7 µM
- GI50 (HS 578T breast): 46 µM
- TGI (HS 578T breast): > 100 µM
- GI50 (NCI-H226 lung): > 38.8 µM
- TGI (NCI-H226 lung): > 66.9 µM
- GI50 (NCI-H23 lung): 21.2 µM
- TGI (NCI-H23 lung): 43.9 µM
